# Data taken from patent US20240050463A1, “THERAPEUTIC COMPOSITIONS AND METHODS FOR TREATING HEPATITIS B” (ARBUTUS BIOPHARMA CORPORATION, priority 2016, published 2024).
# Tests used:
# hepatitis B virus (HBV) [1] = assay: Serum HBsAg in AAV1.2 mouse model of HBV, enzyme immunoassay; format: in vivo, C57/Bl6 mice; details: D0 (pre-treatment); Compound 20 3.0 mg/kg oral twice daily Days 0-28; HBV siRNA 0.3 mg/kg IV Day 0
# Protocol: (§1) This viral vector contains a 1.2-fold overlength copy of the HBV genome and expresses HBV surface antigen (HBsAg) amongst other HBV products. Serum HBsAg expression in mice was monitored using an enzyme immunoassay. Animals were sorted (randomized) into groups based on serum HBsAg levels such that a) all animals were confirmed to express HBsAg and b) HBsAg group means were similar to each other prior to initiation of treatments.
# Animals were treated with Compound 20 as follows: Starting on Day 0, a 3.0 mg/kg dosage of Compound 20 was administered orally to animals on a twice-daily frequency for a total of 56 doses between Days 0 and 28. Compound 20 was dissolved in a co-solvent formation for administration. Negative control animals were administered either the co-solvent formulation alone, or were not treated with any test article. Animals were treated with lipid nanoparticle (LNP)-encapsulated HBV-targeting siRNAs as follows: On Day 0, an amount of test article equivalent to 0.3 mg/kg siRNA was administered intravenously. The HBsAg expression levels for each treatment were compared against the Day 0 (pre-dose) values for that group.
# The effect of these treatments was determined by collecting blood on Days 0 (pre-treatment), 7, 14, and 28 and analyzing it for serum HBsAg content.
# hepatitis B virus (HBV) [2] = assay: Serum HBsAg in mouse model of HBV (pAAV/HBV1.2 hydrodynamic injection), enzyme immunoassay; format: in vivo, C3H/HeN mice; details: HBV siRNA 1 mg/kg IV Days 0, 7, 14, poly(I:C) 20 μg HDI Day 0, mean ± SEM
# From the text: A mouse model of hepatitis B virus (HBV) was used to assess the anti-HBV effects of an immune stimulant and HBV-targeting siRNAs, both as independent treatments and in combination with each other.
# as §1, with “This plasmid carries” for “This viral vector contains”, “of a” for “of the”
# Animals were treated with immune stimulant as follows: On Day 0, 20 micrograms of high molecular weight polyinosinic:poly cytidylic acid (poly(I:C)) was administered via HDI. Animals were treated with lipid nanoparticle (LNP)-encapsulated HBV-targeting siRNAs as follows: On each of Days 0, 7 & 14, an amount of test article equivalent to 1 mg/kg siRNA was administered intravenously. A negative control group was included as the HBsAg expression level is not completely stable in this mouse model of HBV; the absolute concentration of serum HBsAg generally declines over time in individual animals.
# The effect of the treatments was determined by collecting a small amount of blood on Days 0 (pre-treatment), 3, 7, 14 & 21 and analyzing it for serum HBsAg content. Samples were diluted as appropriate to generate values within the assay range of quantitation where possible. Individual values falling below the lower limit of quantitation (LLOQ) were set as one-half the LLOQ.
# [3] = system: D type HBV in primary human hepatocytes (PHH); assay: HBV DNA in culture supernatants of HBV-infected primary human hepatocytes (qPCR), MacSynergy; format: cell-based; details: for AVERAGE % INHIBITION, HBV DNA: COMPOUND 3 0.00 nM; for AVERAGE % INHIBITION: HBV DNA, COMPOUND 22 0.00 nM
# Protocol: (§2) The mouse liver perfusion was applied to isolate PHHs. The isolated hepatocytes were further purified by Percoll. The cells were resuspended with culture media and seeded into the 96-well plates (6×10^4 cell/well) or 48-well plates (1.2×10^5 cell/well). The PHHs were infected with a D type HBV one day post seeding (day 1).
# (§3) On day 2, the test compounds were diluted and added into the cell culture plates. The culture media containing the compounds were refreshed every other day. The cell culture supernatants were collected on day 8 for the HBV DNA and antigen determinations.
# (§4) The compounds were tested at 7 concentrations, 3-fold dilution, in triplicate.
# (§5) Two compounds were tested at 5×5 matrix, in triplicate plates.
# DNA in the culture supernatants harvested on days 8 were isolated with QIAamp 96 DNA Blood Kit (Qiagen-51161). For each sample, 100 μl of the culture supernatants was used to extract DNA. The DNA was eluted with 100 μl, 150 μl or 180 μl of AE. HBV DNA in the culture supernatants was quantified by qPCR. The combination effect was analyzed by the MacSynergy software. The primers are described below.
# [4] = system: HBsAg, D type HBV in primary human hepatocytes (PHH); assay: microbe, parasite or virus in culture; format: cell-based; details: for AVERAGE % INHIBITION, HBsAg: COMPOUND 3 0.00 nM; for AVERAGE % INHIBITION: HBsAg, COMPOUND 22 0.00 nM
# Protocol: as §2, §3, §4, §5
# (§6) HBsAg/HBeAg in the culture supernatants harvested on days 8 were measured by the HBsAg/HBeAg ELISA kit (Autobio) according to the manual. The samples were diluted with PBS to get the signal in the range of the standard curve. The inhibition rates were calculated with the formula below. The combination effect was analyzed by the MacSynergy software.
# % Inh. HBsAg=[1−HBsAg quantity of sample/HBV quantity of DMSO control]×100.
# [5] = system: HBeAg, D type HBV in primary human hepatocytes (PHH); assay: microbe, parasite or virus in culture; format: cell-based
# Protocol: as §2, §3, §4, §5, §6
# % Inh. HBeAg=[1−HBeAg quantity of sample/HBV quantity of DMSO control]×100.
# [6] = system: HBV rcDNA in HepDE19 cells; assay: Inhibition of rcDNA in HepDE19 cells (bDNA assay), checkerboard, MacSynergy II; format: cell-based, HBV (human hepatoma cell line); details: Hepatitis B virus, HepDE19, read-out: ADDITIVE INHIBITION
# Protocol: In vitro combination studies were conducted using the method of Prichard and Shipman (Prichard M N, and Shipman C Jr., Antiviral Research, 1990, 14(4-5), 181-205; and Prichard M N, et. al., MacSynergy II). HepDE19 cell culture system is a HepG2 (human hepatocarcinoma) derived cell line that supports HBV DNA replication and cccDNA formation in a tetracycline (Tet)-regulated manner and produces HBV rcDNA and a detectable reporter molecule dependent on the production and maintenance of cccDNA (Guo et al 2007. J. Virol 81:12472-12484). HepDE19 (50,000 cells/well) were plated in 96 well collagen-coated tissue-culture treated microtiter plates in DMEM/F12 medium supplemented with 10% fetal bovine serum, 1% penicillin-streptomycin and 1 μg/ml tetracycline and incubated in a humidified incubator at 37° C. and 5% CO2 overnight. Next day, the cells were switched to fresh medium without tetracycline and incubated for 4 hrs at 37° C. and 5% CO2. […] The two inhibitors were tested both singly as well as in combinations in a checkerboard fashion such that each concentration of inhibitor A was combined with each concentration of inhibitor B to determine their combination effects on inhibition of rcDNA production. Following a 7 day-incubation of cells with compound combinations, the level of rcDNA present in the inhibitor-treated wells was measured using a Quantigene 2.0 bDNA assay kit (Affymetrix, Santa Clara, CA) with HBV specific custom probe set and manufacturers instructions. […] The RLU data from the single compound treated cells were analyzed using XL-Fit module in Microsoft Excel to determine EC50 values using a 4-parameter curve fitting algorithm. Concurrently, the effect of compounds on cell viability was assessed using replicate plates, plated at a density of 5,000 cells/well and incubated for 4 days, to determine the ATP content as a measure of cell viability using the cell-titer glo reagent (CTG; Promega Corporation, Madison, WI) as per manufacturer's instructions.
# In vitro combination studies were conducted using the method of Prichard and Shipman (Prichard M N, Shipman C, Jr., Antiviral Res, 14, 181-205 (1990)). The HepDE19 cell line was developed as described in Guo et al. (Guo et al., J Virol, 81, 12472-12484 (2007)). It is a human hepatoma cell line stably transfected with the HBV genome, and which can express HBV pregenomic RNA and support HBV rcDNA (relaxed circular DNA) synthesis in a tetracycline-regulated manner. HepDE19 cells were plated in 96 well tissue-culture treated microtiter plates in DMEM/F12 medium supplemented with 10% fetal bovine serum+1% penicillin-streptomycin without tetracycline and incubated in a humidified incubator at 37° C. and 5% CO2 overnight. […] The two inhibitors were tested both singly as well as in combinations in a checkerboard fashion such that each concentration of inhibitor A was combined with each concentration of inhibitor B to determine their combination effects on inhibition of rcDNA production. Following a 48 hour-incubation, the level of rcDNA present in the inhibitor-treated wells was measured using a bDNA assay (Affymetrix) with HBV specific custom probe set and manufacturers instructions. […] Concurrently, the effect of inhibitor combinations on cell viability was assessed using replicate plates that were used to determine the ATP content as a measure of cell viability using the Cell-TiterGlo reagent (Promega) as per manufacturer's instructions.
# In vitro combination studies were conducted using the method of Prichard and Shipman (1990) (Prichard M N, Shipman C, Jr. 1990. A three-dimensional model to analyze drug-drug interactions. Antiviral Res 14:181-205 AND Prichard M N. 1992. MacSynergy II, University of Michigan).
# [7] = Hepatitis B virus, Hepatocyte, read-out: AVERAGE % INHIBITION (HBV DNA)
# [8] = Hepatitis B virus, Hepatocyte, read-out: AVERAGE % INHIBITION (HBsAg)
# [9] = Hepatitis B virus, Hepatocyte, read-out: AVERAGE % INHIBITION (HBeAg)
compound,measurement,setting,value
COCCCOc1cc2c(cc1OC)-c1cc(=O)c(C(=O)O)cn1[C@H](C(C)C)C2 [Compound 20],"Serum HBsAg, percentage of individual animal pre-treatment baseline value at Day 0 (mean ± SEM)",hepatitis B virus (HBV) [1],100 ± 0%
polyinosinic:poly cytidylic acid [Poly(I:C)],Serum HBsAg as percentage of individual pre-treatment baseline,hepatitis B virus (HBV) [2]; Day 0 (pre-treatment),100 ± 0%
same,Serum HBsAg as percentage of individual pre-treatment baseline,hepatitis B virus (HBV) [2]; Day 3,6.1 ± 1.1%
same,Serum HBsAg as percentage of individual pre-treatment baseline,hepatitis B virus (HBV) [2]; Day 7,3.5 ± 1.1%
same,Serum HBsAg as percentage of individual pre-treatment baseline,hepatitis B virus (HBV) [2]; Day 14,3.9 ± 1.4%
same,Serum HBsAg as percentage of individual pre-treatment baseline,hepatitis B virus (HBV) [2]; Day 21,4.7 ± 2.3%
COCCCOc1cc2c(cc1OC)-c1cc(=O)c(C(=O)O)cn1C(C(C)C)C2 (stereo not drawn) [Compound 25],"AVERAGE % INHIBITION, HBV DNA",[3]; COMPOUND 25 0.12 nM,−20.98%
same,"AVERAGE % INHIBITION, HBV DNA",[3]; COMPOUND 25 0.37 nM,−51.8%
same,"AVERAGE % INHIBITION, HBV DNA",[3]; COMPOUND 25 3.33 nM,15.24%
same,"AVERAGE % INHIBITION, HBV DNA",[3]; COMPOUND 25 10.00 nM,28%
same,"AVERAGE % INHIBITION, HBV DNA",[3]; COMPOUND 25 […],5.69%
same,AVERAGE % INHIBITION,[3]; COMPOUND 25 0.12 nM,−42.82%
same,AVERAGE % INHIBITION,[3]; COMPOUND 25 0.37 nM,−46.48%
same,AVERAGE % INHIBITION,[3]; COMPOUND 25 3.33 nM,16.41%
same,AVERAGE % INHIBITION,[3]; COMPOUND 25 10.00 nM,37.39%
same,AVERAGE % INHIBITION,[3]; COMPOUND 25 […],−19.21%
same,"AVERAGE % INHIBITION, HBsAg",[4]; COMPOUND 25 0.37 nM,−5.09%
same,"AVERAGE % INHIBITION, HBsAg",[4]; COMPOUND 25 […],−3.18%
same,AVERAGE % INHIBITION,[4]; COMPOUND 25 0.37 nM,12.93%
same,AVERAGE % INHIBITION,[4]; COMPOUND 25 […],26.4%
same,"AVERAGE % INHIBITION, HBeAg","[5]; COMPOUND 25 […], COMPOUND 3 0.00 nM",4.51%
same,AVERAGE % INHIBITION,"[5]; HBeAg, COMPOUND 25 […], COMPOUND 22 0.00 nM",14.98%
"CC(C)OC(=O)[C@H](C)N[P@](=O)(CO[C@H](C)Cn1cnc2c(N)ncnc21)Oc1ccccc1 [TAF, tenofovir alafenamide]",inhibition at 0.0007813 µM,[6],-4.76%
same,inhibition at 0.0015625 µM,[6],3.49%
same,inhibition at 0.00012 µM,[3]; [7],-2.6%
same,inhibition at 0.00037 µM,[3]; [7],-1.92%
same,inhibition at 0.00333 µM,[3]; [7],40.2%
same,inhibition at 0.01 µM,[3]; [7],50.2%
same,"AVERAGE % INHIBITION, HBV DNA",[3]; TAF 0.05 nM,−8.77%
same,"AVERAGE % INHIBITION, HBV DNA",[3]; TAF 0.41 nM,28.78%
same,"AVERAGE % INHIBITION, HBV DNA",[3]; TAF 1.23 nM,63.39%
same,"AVERAGE % INHIBITION, HBV DNA",[3]; TAF 3.70 nM,78.31%
same,inhibition at 0.000123457 µM,[4]; [8],29.8%
same,inhibition at 0.00037037 µM,[4]; [8],10.8%
same,inhibition at 0.00111111 µM,[4]; [8],20.8%
same,inhibition at 0.00333333 µM,[4]; [8],9.06%
same,inhibition at 0.01 µM,[4]; [8],7.97%
same,inhibition at 50 pM,[5]; [9],1.17%
same,inhibition at 0.00014 µM,[5]; [9],-2.78%
same,inhibition at 0.00041 µM,[5]; [9],1.76%
same,inhibition at 0.00123 µM,[5]; [9],9.91%
same,inhibition at 0.0037 µM,[5]; [9],11.9%
